Laboratory results as given in PubChem BioAssay AID256 (DTP/NCI, 2004).
Values joined by “and” are separate entries in the source; they are usually repeats but may differ in a detail not shown here. Identical values can stand only once. Inconclusive results and toxic doses are left out. How the source made its calls: active means survival T/C of 150% or more; inactive means T/C below 125% in these data.

System: CD2F1 mice, L1210 leukemia ip, survival T/C
Assay: NCI In Vivo Anticancer Drug Screen. Data for tumor model L1210 Leukemia (intraperitoneal) in CD2F1 (CDF1) mice
Conditions: higher = longer survival
Summary of the method: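 Mice carrying a transplanted tumor received test compound or vehicle alone. The value is the measurement in the treated group divided by that in the vehicle-treated control group.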

[1] = endpoint: mean survival time, dose: 100.0 mg/kg/injection, schedule: Q01DX009 (ip), vehicle: saline
[2] = endpoint: mean survival time, dose: 100.0 mg/kg/injection, schedule: Q04DX003 (ip), vehicle: saline with Tween-80
[3] = endpoint: mean survival time, dose: 200.0 mg/kg/injection, schedule: Q01DX009 (ip), vehicle: saline
[4] = endpoint: mean survival time, dose: 200.0 mg/kg/injection, schedule: Q04DX003 (ip), vehicle: saline with Tween-80
[5] = endpoint: mean survival time, dose: 400.0 mg/kg/injection, schedule: Q04DX003 (ip), vehicle: saline with Tween-80
[6] = endpoint: mean survival time, dose: 12.5 mg/kg/injection, schedule: Q01DX009 (ip), vehicle: saline with Tween-80
[7] = endpoint: mean survival time, dose: 25.0 mg/kg/injection, schedule: Q01DX009 (ip), vehicle: saline with Tween-80
[8] = endpoint: mean survival time, dose: 50.0 mg/kg/injection, schedule: Q01DX009 (ip), vehicle: saline with Tween-80
[9] = endpoint: mean survival time, dose: 100.0 mg/kg/injection, schedule: Q01DX001 (ip), vehicle: saline
[10] = endpoint: mean survival time, dose: 25.0 mg/kg/injection, schedule: Q04DX003 (ip), vehicle: saline with Tween-80
[11] = endpoint: mean survival time, dose: 50.0 mg/kg/injection, schedule: Q04DX003 (ip), vehicle: saline with Tween-80
[12] = endpoint: mean survival time, dose: 50.0 mg/kg/injection, schedule: Q01DX009 (ip), vehicle: Klucel (hydroxypropylcellulose) (HPC)
[13] = endpoint: mean survival time, dose: 100.0 mg/kg/injection, schedule: Q01DX009 (ip), vehicle: Klucel (hydroxypropylcellulose) (HPC)
[14] = endpoint: mean survival time, dose: 200.0 mg/kg/injection, schedule: Q01DX009 (ip), vehicle: Klucel (hydroxypropylcellulose) (HPC)
[15] = endpoint: mean survival time, dose: 100.0 mg/kg/injection, schedule: Q01DX009 (ip), vehicle: saline with Tween-80
[16] = endpoint: mean survival time, dose: 200.0 mg/kg/injection, schedule: Q01DX009 (ip), vehicle: saline with Tween-80
[17] = endpoint: mean survival time, dose: 400.0 mg/kg/injection, schedule: Q01DX009 (ip), vehicle: saline with Tween-80
[18] = endpoint: mean survival time, dose: 200.0 mg/kg/injection, schedule: Q01DX001 (ip), vehicle: saline
[19] = endpoint: mean survival time, dose: 400.0 mg/kg/injection, schedule: Q01DX001 (ip), vehicle: saline

Measured: T/C

O=S(=O)(O)SCCN1CCOCC1
inactive: [1] 103 % of control | [2] 101 % of control | [3] 106 % of control | [4] 101 % of control | endpoint: mean survival time, dose: 400.0 mg/kg/injection, schedule: Q01DX009 (ip), vehicle: saline 104 % of control | [5] 100 % of control

O=C1c2ccccc2C(=O)N1CCN1C(=O)c2ccccc2C1=O
inactive: endpoint: mean survival time, dose: 75.0 mg/kg/injection, schedule: Q01DX001 (ip), vehicle: saline with Tween-80 94 % of control | endpoint: mean survival time, dose: 150.0 mg/kg/injection, schedule: Q01DX001 (ip), vehicle: saline with Tween-80 95 % of control | endpoint: mean survival time, dose: 300.0 mg/kg/injection, schedule: Q01DX001 (ip), vehicle: saline with Tween-80 94 % of control

CC(C)(CN=Cc1ccccc1[O-])N=Cc1ccccc1[O-].[O]=[V]
inactive: [6] 89 % of control | [7] 96 % of control | [8] 91 % of control | [2] 100 % of control | [4] 88 % of control

O=C(O)O.O=C(O)O.O=C(O)O.[Co]
inactive: [9] 102 % of control | endpoint: mean survival time, dose: 400.0 mg/kg/injection, schedule: Q04DX003 (ip), vehicle: saline 97 % of control

CN(C)C1=NC1(C)C.CN(C)C1=NC1(C)C.[Cl][Pd][Cl]
inactive: endpoint: mean survival time, dose: 3.13 mg/kg/injection, schedule: Q04DX003 (ip), vehicle: distilled water + Tween-80 96 % of control | endpoint: mean survival time, dose: 6.25 mg/kg/injection, schedule: Q04DX003 (ip), vehicle: distilled water + Tween-80 101 % of control | endpoint: mean survival time, dose: 12.5 mg/kg/injection, schedule: Q04DX003 (ip), vehicle: distilled water + Tween-80 96 % of control | endpoint: mean survival time, dose: 25.0 mg/kg/injection, schedule: Q04DX003 (ip), vehicle: distilled water + Tween-80 105 % of control | endpoint: mean survival time, dose: 50.0 mg/kg/injection, schedule: Q04DX003 (ip), vehicle: distilled water + Tween-80 101 % of control | endpoint: mean survival time, dose: 100.0 mg/kg/injection, schedule: Q04DX003 (ip), vehicle: distilled water + Tween-80 114 % of control

O=C(O)Cc1ccccc1[N+](=O)[O-]
inactive: endpoint: mean survival time, dose: 100.0 mg/kg/injection, schedule: Q01DX001 (ip), vehicle: saline with Tween-80 106 % of control | endpoint: mean survival time, dose: 200.0 mg/kg/injection, schedule: Q01DX001 (ip), vehicle: saline with Tween-80 101 % of control | endpoint: mean survival time, dose: 400.0 mg/kg/injection, schedule: Q01DX001 (ip), vehicle: saline with Tween-80 101 % of control

CCOc1ccc([N+](=O)[O-])cc1[N+](=O)[O-]
inactive: [10] 93 % of control | [11] 98 % of control | [2] 94 % of control

NC1CCCCC1N.Nc1c(N=Nc2ccc(-c3ccc(N=Nc4cc(S(=O)(=O)[O-])c5ccccc5c4N)cc3)cc2)cc(S(=O)(=O)[O-])c2ccccc12.[OH3+].[OH3+].[Pt+4]
inactive: endpoint: median survival time, dose: 3.12 mg/kg/injection, schedule: Q04DX003 (ip), vehicle: saline with Tween-80 108 % of control | endpoint: median survival time, dose: 6.25 mg/kg/injection, schedule: Q04DX003 (ip), vehicle: saline with Tween-80 100 % of control | endpoint: median survival time, dose: 12.5 mg/kg/injection, schedule: Q04DX003 (ip), vehicle: saline with Tween-80 102 % of control | endpoint: median survival time, dose: 25.0 mg/kg/injection, schedule: Q04DX003 (ip), vehicle: saline with Tween-80 98 % of control | endpoint: median survival time, dose: 50.0 mg/kg/injection, schedule: Q04DX003 (ip), vehicle: saline with Tween-80 106 % of control | endpoint: median survival time, dose: 100.0 mg/kg/injection, schedule: Q04DX003 (ip), vehicle: saline with Tween-80 97 % of control | endpoint: median survival time, dose: 200.0 mg/kg/injection, schedule: Q04DX003 (ip), vehicle: saline with Tween-80 100 % of control

[Br][Pt+2][Br].[NH-]C(CC([NH-])c1ccccc1)c1ccccc1 (stereo unspecified)
inactive: endpoint: mean survival time, dose: 12.5 mg/kg/injection, schedule: Q04DX003 (ip), vehicle: saline with Tween-80 101 % of control and 107 % of control and 112 % of control | [10] 102 % of control and 89 % of control | [11] 91 % of control

Cc1cccc(/C(=C\c2ccc([N+](=O)[O-])cc2)C(=O)Nc2ccc(S(=O)(=O)F)c(C)c2)c1
inactive: [12] 91 % of control | [13] 94 % of control | [14] 112 % of control

CCOC(=O)C(=CN1CCCCCC1)C(=O)OCC
inactive: [15] 94 % of control | [16] 89 % of control | [17] 94 % of control

CCOC(=O)C(C#N)CC (stereo unspecified)
inactive: [9] 98 % of control | [18] 98 % of control | [19] 107 % of control

OCCCCCCl
inactive: [9] 104 % of control | [18] 98 % of control | [19] 101 % of control

c1ccc2c(c1)C(=NN=C1c3ccccc3-c3ccccc31)c1ccccc1-2
inactive: [15] 94 % of control | [2] 94 % of control | [16] 92 % of control | [4] 88 % of control | [17] 94 % of control | [5] 88 % of control

Cc1ccc([N+](=O)[O-])cc1NC(=O)Nc1cc([N+](=O)[O-])ccc1O
inactive: [15] 91 % of control | [16] 96 % of control | [17] 107 % of control

Cc1c(N=O)c(-c2ccccc2)n(O)[n+]1[O-]
inactive: [12] 104 % of control | [13] 104 % of control | [14] 101 % of control

CN(C)C1c2cc(Cl)ccc2-c2ccc(Cl)cc21
inactive: endpoint: mean survival time, dose: 50.0 mg/kg/injection, schedule: Q01DX001 (ip), vehicle: carboxymethylcellulose (CMC) 101 % of control | endpoint: mean survival time, dose: 100.0 mg/kg/injection, schedule: Q01DX001 (ip), vehicle: carboxymethylcellulose (CMC) 95 % of control | endpoint: mean survival time, dose: 200.0 mg/kg/injection, schedule: Q01DX001 (ip), vehicle: carboxymethylcellulose (CMC) 101 % of control | endpoint: mean survival time, dose: 400.0 mg/kg/injection, schedule: Q01DX001 (ip), vehicle: carboxymethylcellulose (CMC) 98 % of control

CC1CCC2(C(=O)O)CCC3(C)C(=CCC4C5(C)CCC(O)C(C)(C)C5CCC43C)C2C1C (stereo unspecified)
inactive: [9] 98 % of control | [18] 98 % of control | [19] 96 % of control

CCC(CC)COC(=O)c1ccccc1C(=O)OCC(CC)CC
inactive: [6] 108 % of control | [7] 101 % of control | [8] 104 % of control | [15] 102 % of control | [16] 98 % of control | [17] 100 % of control

CC1(C)N=C(N)N=C(N)N1c1ccc(CNC(=O)Nc2cccc(S(=O)(=O)F)c2)cc1
inactive: endpoint: mean survival time, dose: 6.25 mg/kg/injection, schedule: Q01DX009 (ip), vehicle: saline 115 % of control | endpoint: mean survival time, dose: 75.0 mg/kg/injection, schedule: Q01DX001 (ip), vehicle: other 104 % of control | endpoint: mean survival time, dose: 150.0 mg/kg/injection, schedule: Q01DX001 (ip), vehicle: other 107 % of control | endpoint: mean survival time, dose: 300.0 mg/kg/injection, schedule: Q01DX001 (ip), vehicle: other 115 % of control

CN(C)NC(=O)/C=C\C(=O)O
inactive: [1] 101 % of control | [3] 101 % of control

CC1(C)C/C(=C\c2ccccc2[N+](=O)[O-])C(=O)c2ccccc21
inactive: endpoint: mean survival time, dose: 100.0 mg/kg/injection, schedule: Q04DX003 (ip), vehicle: acetone 92 % of control | endpoint: mean survival time, dose: 200.0 mg/kg/injection, schedule: Q04DX003 (ip), vehicle: acetone 90 % of control | endpoint: mean survival time, dose: 400.0 mg/kg/injection, schedule: Q04DX003 (ip), vehicle: acetone 93 % of control

C/C=C(\NC1CCCCC1)C(=O)c1ccccc1
inactive: [13] 100 % of control | endpoint: mean survival time, dose: 100.0 mg/kg/injection, schedule: Q04DX003 (ip), vehicle: Klucel (hydroxypropylcellulose) (HPC) 101 % of control | [14] 109 % of control | endpoint: mean survival time, dose: 200.0 mg/kg/injection, schedule: Q04DX003 (ip), vehicle: Klucel (hydroxypropylcellulose) (HPC) 100 % of control | endpoint: mean survival time, dose: 400.0 mg/kg/injection, schedule: Q04DX003 (ip), vehicle: Klucel (hydroxypropylcellulose) (HPC) 97 % of control

C=CCN1/C(=C/C=C\c2sc3ccccc3[n+]2CC=C)Sc2ccccc21
inactive: endpoint: mean survival time, dose: 2.0 mg/kg/injection, schedule: Q04DX003 (ip), vehicle: saline 110 % of control | endpoint: mean survival time, dose: 4.0 mg/kg/injection, schedule: Q04DX003 (ip), vehicle: saline 115 % of control
